How the values were obtained:
[1] = target: T1, CrGUN4 (Chlamydomonas GUN4) (Chlamydomonas reinhardtii, UniProt A8I5N5, N219G); assay: absorption spectrum of purified protein co-expressed with PCB biosynthesis in E. coli; conditions: TKKG buffer (25 mM TES-KOH pH 7.8, 100 mM KCl, 10% glycerol); no PCB binding detected
T1 construct: gene CHLRE_05g246800v5; in-frame His-tagged fusion in pET28a; expressed in E. coli C41 with pKT271 (PCB biosynthesis); Ni-NTA purified

[2] = target: T2, CrGUN4 (Chlamydomonas GUN4) (Chlamydomonas reinhardtii, UniProt A8I5N5); assay: as above; assay type: binding; conditions: TKKG buffer (25 mM TES-KOH pH 7.8, 100 mM KCl, 10% glycerol); peaks at 368 and 674 nm
T2 construct: gene CHLRE_05g246800v5; in-frame His-tagged fusion in pET28a; expressed in E. coli C41 with pKT271 (PCB biosynthesis); Ni-NTA purified
T2 sequence (A8I5N5 entry or part of it): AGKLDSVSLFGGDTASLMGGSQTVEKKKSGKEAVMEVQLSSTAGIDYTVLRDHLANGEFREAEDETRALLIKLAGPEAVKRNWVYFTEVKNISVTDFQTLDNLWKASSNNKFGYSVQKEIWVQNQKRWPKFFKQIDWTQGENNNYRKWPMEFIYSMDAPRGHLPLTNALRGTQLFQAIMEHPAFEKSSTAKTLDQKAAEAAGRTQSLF

T1 sequence (A8I5N5 entry or part of it N219G): as the sequence (A8I5N5 entry or part of it) above, with N167G counted along it

CC=C1C(=CC2=NC(=Cc3[nH]c(C=C4NC(=O)C(CC)=C4C)c(C)c3CCC(=O)O)C(CCC(=O)O)=C2C)NC(=O)[C@@H]1C [PCB]
bilin absorbance peaks (368 and 674 nm) [1]: these peaks are absent in the N219G variant
absorption spectrum of purified protein co-expressed with PCB biosynthesis in E. [2]: Wild-type CrGUN4 contains a small amount of bilin as shown by characteristic peaks

Source: paper PMC10156173, “GUN4 appeared early in cyanobacterial evolution” (PNAS Nexus, 2023)
